Read-outs that look alike come from different tables or passages of the source.
How the values were obtained:
human P2X3 receptor = human P2X3 receptor (Homo sapiens (Human), UniProt P56373); experiment: Evaluation of human P2X3 receptor inhibitory activity in the presence of human serum albumin (HSA); assay type: cell-based; conditions: in the presence of 1% HSA (final concentration)
Experimental: Stably expressing cell line (C6BU-1 cell transfected with human P2X3 receptor gene (GenBank accession number Y07683; was used. The cells were seeded in a 96-well microtiter plate at a concentration of 8000 cells/well and cultured in the medium (7.0% fetal bovine serum, 7.0% horse serum, 1% antibiotic and antifungal, and 2.0% glutamine in DMEM) for one day at 37° C. under 5% carbon dioxide atmosphere. The medium was replaced with 4 μM Fluo-3-AM solution (20 mM HEPES, 137 mM NaCl, 5.37 mM KCl, 0.9 mM MgCl2, 1.26 mM CaCl2, 5.6 mM D-glucose, 2.5 mM probenecid, 0.5% BSA, and 0.04% Pluronic F-127, pH 7.5) and incubated at 37° C. under 5% dioxide carbon atmosphere for one hour. The plate was washed with washing buffer (20 mM HEPES, 137 mM NaCl, 5.27 mM KCl, 0.9 mM MgCl2, 1.26 mM CaCl2, 5.6 mM D-glucose, 2.5 mM probenecid, pH 7.5), and each well was added with 40 μL of this buffer. The plate was placed in High-Throughput Screening System FDSS 3000 (Hamamatsu Photonics K.K.). Measurement of fluorescence intensity by FDSS 3000 was started, and 40 μL of DMSO solutions containing 1% HSA (final concentrations) different concentrations of the test compound as prepared by dilution with dilution buffer (20 mM HEPES, 137 mM NaCl, 5.27 mM KCl, 0.9 mM MgCl2, 1.26 mM CaCl2, 5.6 mM D-glucose, 2.5 mM probenecid, 0.1% Pluronic F-127, pH 7.5) were dispensed to each well through the built-in automatic dispenser. Five minutes after, 50 nM ATP solution (50 μL) prepared by dilution with the dilution buffer was dispensed through the built-in automatic dispenser, and the measurement of fluorescence intensity was continued for 4 min. For each well, the specific maximum fluorescence intensity was calculated as the ratio of the maximum fluorescence intensity after addition of the ATP solution to the fluorescence intensity at the starting of the measurement. […] FDSS software (Hamamatsu Photonics K.K.) was used for calculation of the specific maximum fluorescence intensity. IC50 was calculated using Microsoft Excel (Microsoft Corporation) and XLfit (idbs Ltd.)

Rat P2X3 receptor = Rat P2X3 receptor (Rattus norvegicus (Rat), UniProt P49654); experiment: Evaluation of rat P2X3 receptor inhibitory activity in the presence of rat serum albumin (RSA); assay type: cell-based; conditions: read-out: ratP2X3 + RSA IC50
Experimental: Rat P2X3 receptor gene (GenBank accession number NM_031075) was expressed in C6BU-1 cell. The C6BU-1 cells were seeded in a 96-well micro titer plate at a concentration of 2500 cells/well and cultured in the medium (7.0% fetal bovine serum, 7.0% horse serum, and 1% antibiotic and antifungal in DMEM) for one day at 37° C. under 5% carbon dioxide atmosphere. The plasmid was transfected into the cells using transfection reagent FuGENE6 (Promega). The transfected cells were cultured in the medium for one day at 37° C. under 5% carbon dioxide atmosphere. The medium was replaced with 4 μM Fluo-4-AM solution (pH 7.5) containing 20 mM HEPES, 137 mM NaCl, 5.27 mM KCl, 0.9 mM MgCl2, 1.26 mM CaCl2, 5.6 mM D-glucose, 2.5 mM probenecid, 10% RSA, and 0.08% Pluronic F-127, and incubated at 37° C. under 5% dioxide carbon atmosphere for one hour. The plate was washed with washing buffer (20 mM HEPES, 137 mM NaCl, 5.27 mM KCl, 0.9 mM MgCl2, 1.26 mM CaCl2, 5.6 mM D-glucose, 2.5 mM probenecid, pH 7.5), and each well was added with 40 μL of this buffer. The plate was placed in High-Throughput Screening System FDSS 3000 (Hamamatsu Photonics K.K.). Measurement of fluorescence intensity by FDSS 3000 was started, and 40 μL of DMSO solutions containing 1% RSA (final concentrations) and different concentrations of the test compound as prepared by dilution with dilution buffer (20 mM HEPES, 137 mM NaCl, 5.27 mM KCl, 0.9 mM MgCl2, 1.26 mM CaCl2, 5.6 mM D-glucose, 2.5 mM probenecid, 0.1% Pluronic F-127, pH 7.5) were dispensed to each well through the built-in automatic dispenser. Five minutes after, 50 nM ATP solution (50 μL) prepared by dilution with the dilution buffer was dispensed through the built-in automatic dispenser, and the measurement of fluorescence intensity was continued for 4 min. For each well, the specific maximum fluorescence intensity was calculated as the ratio of the maximum fluorescence intensity after addition of the ATP solution to the fluorescence intensity at the starting of the measurement. […] FDSS software (Hamamatsu Photonics K.K.) was used for calculation of the specific maximum fluorescence intensity. IC50 was calculated using Microsoft Excel (Microsoft Corporation) and XLfit (idbs Ltd.).

[1] = Solubility test (1% DMSO, artificial intestinal juice pH 6.8); assay type: physicochemical; conditions: artificial intestinal juice pH 6.8 with 1% DMSO, 25 °C, fassgf or other biorelevant, kinetic from dmso stock, artificial intestinal juice pH 6.8, 25 degrees Celsius, read-out: Solubulity
Experimental: The solubility of a compound was determined under a condition in which 1% DMSO was added. 10 mmol/L compound solution was prepared using DMSO, and then 2 μL of the compound solution was added to 198 μL of artificial intestinal juice in pH 6.8 (to 250 mL of 0.2 mol/L potassium dihydrogen phosphate reagent solution was added 118 mL of 0.2 mol/L NaOH reagent solution and water to provide a final volume of 1000 mL). After standing at 25 degrees Celsius for 18 hours, the mixed solution was filtrated with suction. The filtrate was diluted twice with methanol/water (1/1), and then a concentration in the filtration was measured with HPLC or LC/MS/MS by the absolute calibration method.

[2] = Metabolism stability test, pooled human hepatic microsomes; assay type: in vitro ADME; conditions: remaining rate, human liver microsomes, 30 minutes, compound concentration 0.5 μmol/L
Experimental: Using commercially available pooled human hepatic microsomes, a test compound is reacted for a constant time, a remaining rate is calculated by comparing a reacted sample and an unreacted sample, thereby, a degree of metabolism in liver is assessed.
A reaction was performed (oxidative reaction) at 37° C. for 0 minute or 30 minutes in the presence of 1 mmol/L NADPH in 0.2 mL of a buffer (50 mmol/L tris-HCl pH 7.4, 150 mmol/L potassium chloride, 10 mmol/L magnesium chloride) containing 0.5 mg protein/mL of human liver microsomes. After the reaction, 50 μL of the reaction solution was added to 100 μL of a methanol/acetonitrile=1/1 (v/v) mixed and centrifuged at 3000 rpm for 15 minutes. The test compound in the supernatant was quantified by LC/MS/MS, and a remaining amount of the test compound after the reaction was calculated, letting a compound amount at 0 minute reaction time to be 100%.
The remaining rate at the compound concentration 0.5 μmol/L are shown below.

[3] = Protein binding test (equilibrium dialysis, unbound fraction in serum); assay type: in vitro ADME; conditions: 37° C.
Experimental: The unbound fraction of the present compound in serum was measured using serum of various species.
The reactive conditions are as follows: Evaluation method, Equilibrium dialysis; Reaction time, 24 hours; Reaction temperature, 37° C.; Concentration of the present compound, 2 μg/mL
The test solution was added to each serum and the mixture was agitated to prepare the serum samples at the concentration mentioned above. Each serum sample was added into one side of the cell and phosphate buffered saline (PBS) was added into the other side to perform equilibrium dialysis at 37° C. for 24 hours. Then, the concentration of the compounds in the samples that were obtained from both sides was measured by LC/MS/MS.
The ratio of PBS concentration to serum concentration is expressed as unbound fraction (fu),

CYP1A2 = CYP1A2 (Homo sapiens (Human), UniProt P05177); experiment: CYP inhibition test, CYP1A2; assay type: in vitro ADME; conditions: pooled human hepatic microsome; 7-ethoxyresorufin-O-deethylation
Experimental: (§1) Using commercially available pooled human hepatic microsome, and employing, as markers, 7-ethoxyresorufin-O-deethylation (CYP1A2), tolbutamide methyl-hydroxylation (CYP2C9), mephenytoin 4′-hydroxylation (CYP2C19), dextromethorphan O-demethylation (CYP2D6), and terfenedine hydroxylation as typical substrate metabolism reactions of human main five CYP enzyme forms (CYP1A2, 2C9, 2C19, 2D6, 3A4), an inhibitory degree of each metabolite production amount by a test compound was assessed.
(§2) The reaction conditions were as follows: substrate, 0.5 μmol/L ethoxyresorufin (CYP1A2), 100 μmol/L tolbutamide (CYP2C9), 50 μmol/L S-mephenitoin (CYP2C19), 5 μmol/L dextromethorphan (CYP2D6), 1 μmol/L terfenedine (CYP3A4); reaction time, 15 minutes; reaction temperature, 37° C. enzyme, pooled human hepatic microsome 0.2 mg protein/mL; test, drug concentration, 1.0, 5.0, 10, 20 μmol/L (four points).
(§3) Each five kinds of substrates, human hepatic microsome, or a test drug in 50 mmol/L Hepes buffer as a reaction solution was added to a […] at the composition as described above, NADPH, as a cofactor was added to initiate metabolism reactions as markers and, after the incubation at 37° C. for 15 minutes, a methanol/acetonitrile=1/1 (v/v) solution was added to stop the reaction. After the centrifugation at 3000 rpm for 15 minutes, resorufin (CYP1A2 metabolite) in the supernatant was quantified by a fluorescent multilabel counter and tributamide hydroxide (CYP2CP metabolite), mephenytoin 4′hydroxide (CYP2C19 metabolite), […] (CYP2D6 metabolite), and terfenadine alcohol (CYP3A4 metabolite) were quantified by LC/MS/MS.
(§4) Addition of only DMSO being a solvent dissolving a drug to a reaction system was adopted as a control (100%), remaining activity (%) was calculated at each concentration of a test drug added as the solution and IC50 was calculated by reverse presumption by a logistic model using a concentration and an inhibition rate.

CYP2C9 = CYP2C9 (Homo sapiens (Human), UniProt P11712); experiment: CYP inhibition test, CYP2C9; assay type: in vitro ADME; conditions: pooled human hepatic microsome; tolbutamide methyl-hydroxylation
Experimental: as §1, §2, §3, §4

CYP2C19 = CYP2C19 (Homo sapiens (Human), UniProt P33261); experiment: CYP inhibition test, CYP2C19; assay type: in vitro ADME; conditions: pooled human hepatic microsome; mephenytoin 4′-hydroxylation
Experimental: as §1, §2, §3, §4

CYP2D6 = CYP2D6 (Homo sapiens (Human), UniProt P10635); experiment: CYP inhibition test, CYP2D6; assay type: in vitro ADME; conditions: pooled human hepatic microsome; dextromethorphan O-demethylation
Experimental: as §1, §2, §3, §4

CYP3A4 = CYP3A4 (Homo sapiens (Human), UniProt P08684); experiment: CYP inhibition test, CYP3A4; assay type: in vitro ADME; conditions: pooled human hepatic microsome; terfenedine hydroxylation
Experimental: as §1, §2, §3, §4

[4] = Pharmacokinetic test (BA, CLtot); assay type: in vivo; conditions: rat, plasma, SD rats
Experimental: • (1) Animals: SD rats were used • (2) Breeding conditions: SD rats were allowed to freely take solid food and sterilized tap water. • (3) Dose and grouping: orally or intravenously administered at a predetermined dose; grouping was as follows (Dose depends on the compound)
Oral administration: 1 mg/kg (n=2)
The total body clearance (CLtot) was calculated by dividing the dose by the AUC of the intravenous administration group.

human P2X3 receptor, sequence (P56373 whole entry): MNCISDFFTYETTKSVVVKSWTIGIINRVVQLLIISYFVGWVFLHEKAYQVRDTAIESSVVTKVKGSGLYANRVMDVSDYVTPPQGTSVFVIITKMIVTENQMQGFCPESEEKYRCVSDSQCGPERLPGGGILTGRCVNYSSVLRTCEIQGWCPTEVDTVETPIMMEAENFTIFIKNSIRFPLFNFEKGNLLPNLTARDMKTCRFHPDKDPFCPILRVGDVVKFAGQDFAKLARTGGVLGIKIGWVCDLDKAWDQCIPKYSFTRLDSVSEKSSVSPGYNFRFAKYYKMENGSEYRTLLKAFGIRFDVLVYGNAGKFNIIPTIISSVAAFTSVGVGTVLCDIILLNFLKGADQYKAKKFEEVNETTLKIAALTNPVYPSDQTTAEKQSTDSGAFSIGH
Rat P2X3 receptor, sequence (P49654 whole entry): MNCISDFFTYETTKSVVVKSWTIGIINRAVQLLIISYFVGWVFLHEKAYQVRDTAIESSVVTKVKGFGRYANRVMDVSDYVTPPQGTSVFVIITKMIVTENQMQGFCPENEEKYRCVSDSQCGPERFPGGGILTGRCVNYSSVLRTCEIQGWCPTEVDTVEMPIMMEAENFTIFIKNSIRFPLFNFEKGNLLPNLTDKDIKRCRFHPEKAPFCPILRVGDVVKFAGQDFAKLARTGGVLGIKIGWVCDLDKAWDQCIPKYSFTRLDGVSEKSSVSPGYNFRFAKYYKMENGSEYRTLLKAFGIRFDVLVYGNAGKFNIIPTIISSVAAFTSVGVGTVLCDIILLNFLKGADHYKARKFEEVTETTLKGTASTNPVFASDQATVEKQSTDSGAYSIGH
CYP2C9, sequence (P11712 whole entry): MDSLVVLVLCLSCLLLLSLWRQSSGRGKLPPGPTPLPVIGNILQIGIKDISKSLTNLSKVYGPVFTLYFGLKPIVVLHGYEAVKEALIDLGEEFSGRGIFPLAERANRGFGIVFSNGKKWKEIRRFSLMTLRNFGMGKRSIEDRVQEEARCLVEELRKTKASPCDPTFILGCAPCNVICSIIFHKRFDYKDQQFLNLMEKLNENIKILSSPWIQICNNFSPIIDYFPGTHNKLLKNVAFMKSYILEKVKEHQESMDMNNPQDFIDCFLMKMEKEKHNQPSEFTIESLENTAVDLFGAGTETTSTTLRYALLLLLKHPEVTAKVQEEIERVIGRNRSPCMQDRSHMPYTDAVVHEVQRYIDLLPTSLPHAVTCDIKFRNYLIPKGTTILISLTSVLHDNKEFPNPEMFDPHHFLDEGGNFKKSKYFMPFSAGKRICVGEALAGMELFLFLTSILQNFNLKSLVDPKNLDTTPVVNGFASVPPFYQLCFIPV
CYP2D6, sequence (P10635 whole entry): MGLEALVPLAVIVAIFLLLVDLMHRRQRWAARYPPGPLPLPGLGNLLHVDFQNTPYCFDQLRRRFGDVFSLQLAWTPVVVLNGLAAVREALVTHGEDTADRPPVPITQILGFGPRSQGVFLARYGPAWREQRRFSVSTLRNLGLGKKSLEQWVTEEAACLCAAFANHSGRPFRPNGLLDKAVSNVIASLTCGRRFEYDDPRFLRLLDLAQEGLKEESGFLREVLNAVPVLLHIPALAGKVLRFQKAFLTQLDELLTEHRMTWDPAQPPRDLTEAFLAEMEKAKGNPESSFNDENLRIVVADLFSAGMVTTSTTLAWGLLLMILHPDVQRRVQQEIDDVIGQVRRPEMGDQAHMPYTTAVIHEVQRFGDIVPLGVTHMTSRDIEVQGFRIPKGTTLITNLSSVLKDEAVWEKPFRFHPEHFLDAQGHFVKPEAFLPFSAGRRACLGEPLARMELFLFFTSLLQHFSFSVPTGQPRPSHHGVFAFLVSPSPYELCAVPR
CYP3A4, sequence (P08684 whole entry): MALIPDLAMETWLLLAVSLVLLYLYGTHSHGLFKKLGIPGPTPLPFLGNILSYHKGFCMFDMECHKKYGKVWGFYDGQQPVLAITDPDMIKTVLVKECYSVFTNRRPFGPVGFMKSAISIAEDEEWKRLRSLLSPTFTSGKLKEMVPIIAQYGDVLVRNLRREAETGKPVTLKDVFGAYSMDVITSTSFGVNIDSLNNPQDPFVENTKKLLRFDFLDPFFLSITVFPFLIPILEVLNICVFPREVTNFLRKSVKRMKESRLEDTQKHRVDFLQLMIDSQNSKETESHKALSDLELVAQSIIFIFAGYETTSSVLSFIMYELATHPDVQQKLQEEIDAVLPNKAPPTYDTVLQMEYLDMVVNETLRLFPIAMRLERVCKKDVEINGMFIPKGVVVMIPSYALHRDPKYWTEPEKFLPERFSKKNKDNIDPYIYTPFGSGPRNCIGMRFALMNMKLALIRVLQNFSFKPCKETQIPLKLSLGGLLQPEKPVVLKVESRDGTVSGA
CYP1A2, sequence (P05177 whole entry): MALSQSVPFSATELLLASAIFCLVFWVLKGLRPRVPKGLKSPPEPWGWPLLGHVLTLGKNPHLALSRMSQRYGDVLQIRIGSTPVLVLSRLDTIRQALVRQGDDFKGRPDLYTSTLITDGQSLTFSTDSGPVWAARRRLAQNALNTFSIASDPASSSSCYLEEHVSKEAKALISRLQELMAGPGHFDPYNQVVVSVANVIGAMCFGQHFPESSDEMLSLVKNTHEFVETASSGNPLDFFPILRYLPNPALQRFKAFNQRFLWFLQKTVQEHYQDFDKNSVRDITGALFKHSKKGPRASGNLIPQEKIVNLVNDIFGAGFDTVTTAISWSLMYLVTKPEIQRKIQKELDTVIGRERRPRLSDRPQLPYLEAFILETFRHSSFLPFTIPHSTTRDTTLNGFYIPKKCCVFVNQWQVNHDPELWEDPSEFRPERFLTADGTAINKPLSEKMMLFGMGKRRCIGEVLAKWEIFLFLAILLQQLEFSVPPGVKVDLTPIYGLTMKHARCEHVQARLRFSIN
CYP2C19, sequence (P33261 whole entry): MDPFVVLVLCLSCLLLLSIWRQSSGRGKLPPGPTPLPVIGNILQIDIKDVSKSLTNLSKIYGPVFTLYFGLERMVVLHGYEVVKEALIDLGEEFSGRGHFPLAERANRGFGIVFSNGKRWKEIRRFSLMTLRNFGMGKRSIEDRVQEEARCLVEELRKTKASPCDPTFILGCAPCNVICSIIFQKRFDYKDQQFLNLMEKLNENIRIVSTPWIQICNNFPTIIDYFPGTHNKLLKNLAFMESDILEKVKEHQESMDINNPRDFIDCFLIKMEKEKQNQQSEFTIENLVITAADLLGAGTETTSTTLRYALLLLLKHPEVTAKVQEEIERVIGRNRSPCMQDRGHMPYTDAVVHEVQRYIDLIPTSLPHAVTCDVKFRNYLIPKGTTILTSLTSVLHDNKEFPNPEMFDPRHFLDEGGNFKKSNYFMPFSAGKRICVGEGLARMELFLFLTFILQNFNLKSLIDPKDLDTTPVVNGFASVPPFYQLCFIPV

## O=c1[nH]/c(=N\c2ccc(Oc3ccc(F)cn3)cc2)n(Cc2ccc(Cl)cc2)c(=O)n1[C@H]1C[C@H](C(=O)O)C1 [Compound I-019]
Human P2X3 receptor
  IC50: 0.068 µM
Rat P2X3 receptor
  IC50: 0.011 µM
[1]
  solubility at 18 h: > 50 µM
[2]
  Metabolism Stability: 96%
[3]
  fraction unbound at 24 h, 2 μg/mL: 0.01

## C[C@@H](Cn1c(=O)[nH]/c(=N\c2ccc(Oc3cccc(F)n3)cc2)n(Cc2ccc(F)cc2F)c1=O)C(=O)O [Compound I-029]
[2]
  Metabolism Stability: 100%
[3]
  fraction unbound at 24 h, 2 μg/mL: 0.017

## Cc1ccc(Cn2c(=O)n(C[C@H](C)C(=O)O)c(=O)[nH]/c2=N\c2ccc(Oc3ncccc3F)cc2)cc1 [Compound I-056]
Human P2X3 receptor
  IC50: 0.023 µM
[3]
  fraction unbound at 24 h, 2 μg/mL: 0.018

## Cc1ccc(Cn2c(=O)n(C[C@H](C)C(=O)O)c(=O)[nH]/c2=N\c2ccc(Oc3cccc(F)n3)cc2)cc1 [Compound I-057]
CYP1A2
  IC50: > 20 µM
CYP2C9
  IC50: > 20 µM
CYP2C19
  IC50: > 20 µM
CYP2D6
  IC50: > 20 µM
CYP3A4
  IC50: > 20 µM
[1]
  solubility at 18 h: > 50 µM
[2]
  Metabolism Stability: 91%
[3]
  fraction unbound at 24 h, 2 μg/mL: 0.017
[4]; intravenous administration 0.5 mg/kg
  clearance: 22.9 mL/min/kg
[4]; intravenous administration 0.5 mg/kg, read-out: AUC (iv)
  AUC: 367 ng·h/mL
[4]; oral administration 1 mg/kg, read-out: AUC (po)
  AUC: 487 ng·h/mL

## O=c1[nH]/c(=N\c2ccc(Oc3ncccc3F)cc2)n(Cc2ccc(Cl)cc2)c(=O)n1[C@H]1C[C@H](C(=O)O)C1 [Compound I-063]
CYP1A2
  IC50: > 20 µM
CYP2C9
  IC50: > 20 µM
CYP2C19
  IC50: > 20 µM
CYP2D6
  IC50: > 20 µM
CYP3A4
  IC50: > 20 µM
[1]
  solubility at 18 h: > 50 µM
[2]
  Metabolism Stability: 97%

## C[C@@H](Cn1c(=O)[nH]/c(=N\c2ccc(Oc3cc(F)ccn3)cc2)n(Cc2ccc(Cl)cc2)c1=O)C(=O)O [Compound I-070]
Human P2X3 receptor
  IC50: 0.037 µM
[2]
  Metabolism Stability: 103%

## C[C@@H](Cn1c(=O)[nH]/c(=N\c2ccc(Oc3cnccn3)cc2)n(Cc2ccc(Cl)cc2)c1=O)C(=O)O [Compound R-019]
Rat P2X3 receptor
  IC50: 0.008 µM
[3]
  fraction unbound at 24 h, 2 μg/mL: 0.018
